In patent publication US20160193206A1, “BET-PROTEIN-INHIBITING DIHYDROPYRIDOPYRAZINONES” (BAYER PHARMA AKTIENGESELLSCHAFT, priority 2012, published 2016) one finds IC50 data, which are given here for twelve molecules.

The structures appear in SMILES notation.

Experiment [1] deals with T1, BRD4 bromo domain 1 [BRD4(1)] (Homo sapiens, UniProt O60885).
T1 construct: N-terminally His6-tagged BRD4(1) (amino acids 67-152); made in house; host or cells: E. coli
The experiment can be described thus: BRD4(1)/acetylated peptide H4 binding assay (TR-FRET). The following applies: inhibition of interaction between His6-tagged BRD4(1) (amino acids 67-152) and acetylated histone H4 peptide. The text has this:
(§1) Protein-Protein Interaction Assay: BRD4/Acetylated Peptide H4 Binding Assay
1. Assay Description for BRD4 Bromo Domain 1 [BRD4(1)]
To assess the BRD4(1) binding strength of the substances described in this application, the ability thereof to inhibit the interaction between BRD4(1) and acetylated histone H4 in a dose-dependent manner was quantified.
(§2) For this purpose, a time-resolved fluorescence resonance energy transfer (TR-FRET) assay was used, which measures the binding between N-terminally His6-tagged BRD4(1) (amino acids 67-152) and a synthetic acetylated histone H4 (Ac-H4) peptide with sequence GRGK(Ac)GGK(Ac)GLGK(Ac)GGAK(Ac)RHGSGSK-biotin. The recombinant BRD4(1) protein produced in-house according to Filippakopoulos et al., Cell, 2012, 149:214-231 was expressed in E. coli and purified by means of (Ni-NTA) affinity and (Sephadex G-75) size exclusion chromatography. The Ac-H4 peptide can be purchased, for example, from Biosyntan (Berlin, Germany).
(§3) In the assay, typically 11 different concentrations of each substance (0.1 nM, 0.33 nM, 1.1 nM, 3.8 nM, 13 nM, 44 nM, 0.15 μM, 0.51 μM, 1.7 μM, 5.9 μM and 20 μM) were analysed as duplicates on the same microtitre plate. For this purpose, 100-fold concentrated solutions in DMSO were prepared by serial dilutions (1:3.4) of a 2 mM stock solution into a clear, 384-well microtitre plate (Greiner Bio-One, Frickenhausen, Germany). From this, 50 nl were transferred into a black test plate (Greiner Bio-One, Frickenhausen, Germany). The test was started by the addition of 2 μl of a 2.5-fold concentrated BRD4(1) solution (final concentration typically 10 nM in the 5 μl of reaction volume) in aqueous assay buffer [50 mM HEPES pH 7.5, 50 mM sodium chloride (NaCl), 0.25 mM CHAPS and 0.05% serum albumin (BSA)] to the substances in the test plate. This was followed by a 10-minute incubation step at 22° C. for the pre-equilibration of putative complexes between BRD4(1) and the substances.
(§4) The mixture was then incubated in the dark at 22° C. for one hour and then at 4° C. for at least 3 hours and for no longer than overnight. The formation of BRD4(1)/Ac-H4 complexes was determined by the measurement of the resonance energy transfer from the streptavidin-Eu cryptate to the anti-6His-XL665 antibody present in the reaction. For this purpose, the fluorescence emission was measured at 620 nm and 665 nm after excitation at 330-350 nm in a TR-FRET measuring instrument, for example a Rubystar or Pherastar (both from BMG Lab Technologies, Offenburg, Germany) or a Viewlux (Perkin-Elmer). The ratio of the emissions at 665 nm and at 622 nm was taken as an indicator of the amount of BRD4(1)/Ac-H4 complexes formed.
The data (ratios) obtained were normalized, with 0% inhibition corresponding to the mean from the measurements for a set of controls (typically 32 data points) in which all the reagents were present. In these, in place of test substances, 50 nl of DMSO (100%) were used. Inhibition of 100% corresponded to the mean from the measurements for a set of controls (typically 32 data points) in which all the reagents except BRD4(1) were present. The IC50 was determined by regression analysis based on a 4-parameter equation (minimum, maximum, IC50, Hill; Y=max+(min−max)/(1+(X/IC50)Hill).
On the technique in general: Time-resolved FRET reads energy transfer from a long-lived donor to a nearby acceptor.

Experiment [2] has as its target T2, BRD4 bromo domain 2 [BRD4(2)] (Homo sapiens, UniProt O60885).
T2 construct: N-terminally His6-tagged BRD4(2) (amino acids 357-445); made in house; host or cells: E. coli
The experiment can be described thus: BRD4(2)/acetylated peptide H4 binding assay (TR-FRET). The following applies: inhibition of interaction between His6-tagged BRD4(2) (amino acids 357-445) and acetylated histone H4 peptide.
Source text: as §1
2. Assay Description for BRD4 Bromo Domain 2 [BRD4(2)]
To assess the BRD4(2) binding strength of the substances described in this application, the ability thereof to inhibit the interaction between BRD4(2) and acetylated histone H4 in a dose-dependent manner was quantified.
as §2, with “BRD4(2)” for “BRD4(1)”, “357-445)” for “67-152)”, “SGRGK(Ac)GGK(Ac)GLGK(Ac)GGAK(Ac)RHRKVLRDNGSGSK-biotin.” for “GRGK(Ac)GGK(Ac)GLGK(Ac)GGAK(Ac)RHGSGSK-biotin.”
as §3, with “concentrated BRD4(2)” for “concentrated BRD4(1)”, “typically 100” for “typically 10”, “chloride (NaCl); 50 mM potassium fluoride (KF);” for “chloride (NaCl),”, “between BRD4(2)” for “between BRD4(1)”
as §4, with “BRD4(2)/Ac-H4” for “BRD4(1)/Ac-H4”, “chelate” for “cryptate”
The data (ratios) obtained were normalized, with 0% inhibition corresponding to the mean from the measurements for a set of controls (typically 32 data points) in which all the reagents were present. In these, in place of test substances, 50 nl of DMSO (100%) were used. Inhibition of 100% corresponded to the mean from the measurements for a set of controls (typically 32 data points) in which all the reagents except BRD4(2) were present. The IC50 was determined by regression analysis based on a 4-parameter equation (minimum, maximum, IC50, Hill; Y=max+(min−max)/(1+(X/IC50)Hill).

The IC50 is the concentration that gives 50% inhibition. The low end stands for higher potency, the high end for lower potency. With `COc1cc(C(=O)NC2CCN(C)CC2)ccc1Nc1ccc2c(n1)N(C1CCCCC1)[C@H](C)C(=O)N2C` [Example 12, 4-{[(3R)-4-Cyclohexyl-1,3-dimethyl-2-oxo-1,2,3,4-tetrahydropyrido[2,3-b]pyrazin-6-yl]amino}-3-methoxy-N-(1-methylpiperidin-4-yl)benzamide], the figures for the IC50 in experiment [1] and in experiment [2] were 104 nM and 111 nM, respectively.

With `CC(C)N1CCN(S(=O)(=O)c2ccc(Nc3ccc4c(n3)N(C3CCOCC3)[C@H](C)C(=O)N4C)cc2)CC1` [Example 16, (3R)-1,3-Dimethyl-6-[(4-{[4-(propan-2-yl)piperazin-1-yl]sulphonyl}phenyl)amino]-4-(tetrahydro-2H-pyran-4-yl)-3,4-dihydropyrido[2,3-b]pyrazin-2(1H)-one], the figures for the IC50 in experiment [1] and in experiment [2] were 286 nM and 212 nM, respectively.

Regarding `C[C@@H]1C(=O)N(C)c2ccc(Nc3ccc(S(=O)(=O)N(C)C)cc3)nc2N1C1CCCCC1` [Example 17, 4-{[(3R)-4-Cyclohexyl-1,3-dimethyl-2-oxo-1,2,3,4-tetrahydropyrido[2,3-b]pyrazin-6-yl]amino}-N,N-dimethylbenzenesulphonamide], the IC50 in experiment [1] is 308 nM; in experiment [2], 111 nM.

Turning to `C[C@@H]1C(=O)N(C)c2ccc(Nc3ccc(S(=O)(=O)NCCc4cccnc4)cc3)nc2N1C1CCOCC1` [Example 19, 4-{[(3R)-1,3-dimethyl-2-oxo-4-(tetrahydro-2H-pyran-4-yl)-1,2,3,4-tetrahydropyrido[2,3-b]pyrazin-6-yl]amino}-N-[2-(pyridin-3-yl)ethyl]benzene-sulphonamide], the 50% inhibitory concentration (IC50) was 219 nM in experiment [1] and 185 nM in experiment [2].

Consider `COc1cc(C(=O)N2CCN(C(C)C)CC2)ccc1Nc1ccc2c(n1)N(C1CCCCC1)[C@H](C)C(=O)N2C` [Example 28, (3R)-4-Cyclohexyl-6-[(2-methoxy-4-{[4-(propan-2-yl)piperazin-1-yl]carbonyl}phenyl)amino]-1,3-dimethyl-3,4-dihydropyrido[2,3-b]pyrazin-2(1H)-one], for which the IC50 in experiment [1] worked out at 195 nM; in experiment [2], 116 nM.

Regarding `C[C@@H]1C(=O)N(C)c2ccc(Nc3ccc(C(=O)N4CC5(CCS5(=O)=O)C4)cc3)nc2N1C1CCCCC1` [Example 29, (3R)-4-Cyclohexyl-6-({4-[(1,1-dioxido-1-thia-6-azaspiro[3.3]hept-6-yl)carbonyl]phenyl}amino)-1,3-dimethyl-3,4-dihydropyrido[2,3-b]pyrazin-2(1H)-one], the IC50 in experiment [1] amounted to 242 nM; in experiment [2], 149 nM.

As for `CC(C)N1CCN(C(=O)c2ccc(Nc3ccc4c(n3)N(C3CCCCC3)[C@H](C)C(=O)N4C)cc2)CC1` [Example 31, (3R)-4-Cyclohexyl-1,3-dimethyl-6-[(4-{[4-(propan-2-yl)piperazin-1-yl]carbonyl}phenyl)amino]-3,4-dihydropyrido[2,3-b]pyrazin-2(1H)-one], the results for the IC50 in experiment [1] and in experiment [2] were 241 nM and 108 nM, respectively.

Take `COc1cc(C(=O)N2CC3(COC3)C2)ccc1Nc1ccc2c(n1)N(C1CCCCCC1)[C@H](C)C(=O)N2C` [Example 32, (3R)-4-Cycloheptyl-6-{[2-methoxy-4-(2-oxa-6-azaspiro[3.3]hept-6-ylcarbonyl)phenyl]amino}-1,3-dimethyl-3,4-dihydropyrido[2,3-b]pyrazin-2(1H)-one]: the IC50 was 376 nM in experiment [1] and 77 nM in experiment [2].

Regarding `C[C@@H]1C(=O)N(C)c2ccc(Nc3ccc(C(=O)N4CC5(CCS5(=O)=O)C4)cc3)nc2N1C1CCCCCC1` [Example 33, (3R)-4-Cycloheptyl-6-({4-[(1,1-dioxido-1-thia-6-azaspiro[3.3]hept-6-yl)carbonyl]phenyl}amino)-1,3-dimethyl-3,4-dihydropyrido[2,3-b]pyrazin-2(1H)-one], the IC50 in experiment [1] turned out to be 329 nM; in experiment [2] it was 80 nM.

Turning to `C[C@@H]1C(=O)N(C)c2ccc(Nc3ccc(C(=O)NCc4ccccn4)cc3)nc2N1C1CCOCC1` [Example 35, 4-{[(3R)-1,3-Dimethyl-2-oxo-4-(tetrahydro-2H-pyran-4-yl)-1,2,3,4-tetrahydropyrido[2,3-b]pyrazin-6-yl]amino}-N-(pyridin-2-ylmethyl)benzamide], the IC50 in experiment [1] was found to be 119 nM; in experiment [2] it was 237 nM.

As for `Cc1cc(C(=O)N2CCN(C)CC2)ccc1Nc1ccc2c(n1)N(C1CCOCC1)[C@H](C)C(=O)N2C` [Example 36, (3R)-1,3-Dimethyl-6-({2-methyl-4-[(4-methylpiperazin-1-yl)carbonyl]phenyl}amino)-4-(tetrahydro-2H-pyran-4-yl)-3,4-dihydropyrido[2,3-b]pyrazin-2(1H)-one], the figures for the IC50 in experiment [1] and in experiment [2] were 257 nM and 245 nM, respectively.

With `COc1cc(C(=O)NC2CCN(C(C)=O)CC2)ccc1Nc1ccc2c(n1)N(C1CCCCC1)[C@H](C)C(=O)N2C` [Example 39, N-(1-Acetylpiperidin-4-yl)-4-{[(3R)-4-cyclohexyl-1,3-dimethyl-2-oxo-1,2,3,4-tetrahydropyrido[2,3-b]pyrazin-6-yl]amino}-3-methoxybenzamide], the IC50 in experiment [1] turned out to be 329 nM; in experiment [2], 145 nM.
